Active and inactive are the calls of the source. No cut-off for these calls is given here.
How the values were obtained:
[1] = molecular target: LC3/Epithelial discoidin domain-containing receptor 1 (Homo sapiens, UniProt Q08345+Q9BXW4+Q9GZQ8+Q9H492); test: Autophagosome tethering activity at DDR1 in human NCI-H23 cells assessed as protein degradation at 0.3 uM measured after 24 hrs by immunoblotting analysis relative to control; format: cell-based
NCI-H23 [2] = test: Inhibition of cell migration in human NCI-H23 cells at 1 uM incubated for 24 hrs by transwell assay; format: functional, cell-based
NCI-H23 [3] = test: Inhibition of cell invasion in human NCI-H23 cells at 1 uM incubated for 24 hrs by transwell assay; format: functional, cell-based
NCI-H23 [4] = test: Inhibition of tumorigenicity in human NCI-H23 cells at 1 uM incubated for 10 days by colony formation assay; format: functional, cell-based; settings: time 10.0 day

Activity [1] [%] | SMILES | inhibition (NCI-H23 [2]) | inhibition (NCI-H23 [3]) | inhibition (NCI-H23 [4])
9 | CCc1ccc(C(=O)Nc2cc(CN3CCN(C(=O)COCCOCCNC(=O)COc4c(Br)cc(/C=C5\C(=O)Nc6ccc(I)cc65)cc4Br)CC3)cc(C(F)(F)F)c2)cc1C#Cc1cnc2ccnn2c1 | – | – | –
0 | CCc1ccc(C(=O)Nc2cc(CN3CCN(CCCCCCCCCC(=O)NCCCN(C(=O)c4ccc(C)cc4)[C@@H](c4nc5cc(Cl)ccc5c(=O)n4Cc4ccccc4)C(C)C)CC3)cc(C(F)(F)F)c2)cc1C#Cc1cnc2ccnn2c1 | – | – | –
16 | CCc1ccc(C(=O)Nc2cc(CN3CCN(C(=O)CNC(=O)COc4c(Br)cc(/C=C5\C(=O)Nc6ccc(I)cc65)cc4Br)CC3)cc(C(F)(F)F)c2)cc1C#Cc1cnc2ccnn2c1 | – | – | –
– | CCc1ccc(C(=O)Nc2cc(CN3CCN(C)CC3)cc(C(F)(F)F)c2)cc1C#Cc1cnc2ccnn2c1 | inactive | inactive | inactive
0 | CCc1ccc(C(=O)Nc2cc(CN3CCN(C(=O)COCCNC(=O)COc4c(Br)cc(/C=C5\C(=O)Nc6ccc(I)cc65)cc4Br)CC3)cc(C(F)(F)F)c2)cc1C#Cc1cnc2ccnn2c1 | – | – | –
9 | CCc1ccc(C(=O)Nc2cc(CN3CCN(C(=O)CCCCCCCNC(=O)COc4c(Br)cc(/C=C5\C(=O)Nc6ccc(I)cc65)cc4Br)CC3)cc(C(F)(F)F)c2)cc1C#Cc1cnc2ccnn2c1 | – | – | –
13 | CCc1ccc(C(=O)Nc2cc(CN3CCN(CCCCCC(=O)NCCCN(C(=O)c4ccc(C)cc4)[C@@H](c4nc5cc(Cl)ccc5c(=O)n4Cc4ccccc4)C(C)C)CC3)cc(C(F)(F)F)c2)cc1C#Cc1cnc2ccnn2c1 | – | – | –
– | CC#Cc1cc(C(=O)Nc2cc(CN3CCN(CCOCC(=O)NCCCN(C(=O)c4ccc(C)cc4)[C@@H](c4nc5cc(Cl)ccc5c(=O)n4Cc4ccccc4)C(C)C)CC3)cc(C(F)(F)F)c2)ccc1CC | inactive | inactive | inactive
0 | CCc1ccc(C(=O)Nc2cc(CN3CCN(CCOCCOCC(=O)NCCCN(C(=O)c4ccc(C)cc4)[C@@H](c4nc5cc(Cl)ccc5c(=O)n4Cc4ccccc4)C(C)C)CC3)cc(C(F)(F)F)c2)cc1C#Cc1cnc2ccnn2c1 | – | – | –

Source: ChEMBL document CHEMBL5506046, “Discovery of LLC355 as an Autophagy-Tethering Compound for the Degradation of Discoidin Domain Receptor 1” (J Med Chem, 2024)
